Literature values as cited in patent US20100136106A1, “Modified Release Famciclovir Compositions” (priority 2005, published 2010).
Where two headings read alike, the source gives them in different places. One block for each compound: values may come before it.

How the values were obtained:
[1] = for metabolite, % of the dose in the urine: in vivo, po
[2] = for solubility in water: 25° C.
[3] = below 85% relative humidity
[4] = for AUC(0-∞) / Cmax / Tmax: healthy male volunteers
[5] = not given; remark: listed apart in the source
[6] = not given; remark: listed apart in the source
cytochrome P450 = conditions: human liver microsomes
[7] = single 500 mg oral dose of radiolabeled famciclovir
[8] = 500 mg famciclovir t.i.d. for 7 days
[9] = 5 mg/kg radiolabeled penciclovir, 1-hour infusion
[10] = intravenous penciclovir
viral DNA polymerase = conditions: competitively with deoxyguanine triphosphate
[11] = 500 mg famciclovir single oral dose, patients with herpes zoster

Compound: CC(=O)OCC(CO)CCn1cnc2cnc(N)nc21 (stereo not drawn) [6-deoxy monoacetylated penciclovir]
metabolite, % of the dose in the urine [1]: < 0.5%

Compound: Nc1ncc2ncn(CCC(CO)CO)c2n1 [6-deoxy penciclovir]
metabolite, % of the dose in the urine [1]: 5%

Compound: CC(=O)OCC(CCn1cnc2cnc(N)nc21)COC(C)=O [famciclovir, 2-[2-(2-amino-9H-purin-9-yl)ethyl]-1,3-propanediol diacetate]
solubility in acetone [2]: freely soluble | solubility in ethanol [2]: sparingly soluble | solubility in isopropanol [2]: sparingly soluble | solubility in methanol [2]: freely soluble | solubility in water ([2]; initially): > 25 % w/v | partition coefficient P (octanol/phosphate buffer (pH 7.4)): 2.08 | partition coefficient P (octanol/water (pH 4.8)): 1.09 | hygroscopicity [3]: not hygroscopic | AUC(0-∞) ([4]; 125 mg single oral dose): 2240 ng·h/mL | Cmax ([4]; 125 mg single oral dose): 800 ng/mL | Tmax ([4]; 125 mg single oral dose): 54 min | AUC(0-∞) ([4]; 250 mg single oral dose): 4480 ng·h/mL | Cmax ([4]; 250 mg single oral dose): 1600 ng/mL | Tmax ([4]; 250 mg single oral dose): 54 min | AUC(0-∞) ([4]; 500 mg single oral dose): 8950 ng·h/mL | Cmax ([4]; 500 mg single oral dose): 3300 ng/mL | Tmax ([4]; 500 mg single oral dose): 54 min | AUC (mean±SD) [5, 11]: 12100 ± 1700 ng·h/mL | Cmax (mean±SD) [5, 11]: 4000 ± 700 ng/mL | Tmax (mean±SD) [5, 11]: 42 ± 12 min | decrease in Cmax ([6]; given 2 hours after a meal compared to 2 hours before a meal): 18% | effect of food on absorption ([6]; regular doses): does not affect the extent of absorption | role of cytochrome P450 in famciclovir metabolism (cytochrome P450): does not play an important role | famciclovir detected in plasma or urine ([1]; oral administration of famciclovir): Little or no | administered radiolabeled dose collected in urine ([7]; first 6 hours): Approximately 60% | administered radioactivity recovered in feces ([7]; over 72 hours): 27% | administered radioactivity recovered in urine ([7]; over 72 hours): 73%

Compound: CC(=O)OCC(CO)CCn1cnc2c(=O)[nH]c(N)nc21 (stereo not drawn) [monoacetylated penciclovir]
metabolite, % of the dose in the urine [1]: < 0.5%

Compound: penciclovir triphosphate
inhibition of viral DNA polymerase (viral DNA polymerase): inhibit viral DNA polymerase competitively

Second part, the compound after the results:

solubility in water ([2]; monohydrate that precipitates): 2-3 % w/v
Compound: CC(=O)OCC(CCn1cnc2cnc(N)nc21)COC(C)=O [monohydrate]

dose proportionality of penciclovir concentrations ([4]; famciclovir dose range of 125 mg to 750 mg, single dose): increased in proportion to dose | AUC of penciclovir greater in patients with herpes zoster as compared to healthy volunteers ([5]; 500 mg famciclovir oral): approximately 35% | half-life ([5]; seven patients with herpes zoster): 180 ± 66 min | accumulation of penciclovir [8]: no accumulation | decrease of penciclovir Cmax with food ([6]; capsule formulation of famciclovir with food (approximately 910 Kcal and 26% fat)): approximately 50% | share of the radioactivity excreted in the urine [9]: 91% | dose excreted in urine ([9]; first 6 hours): 83% | administered radioactivity recovered in urine ([9]; over 24 hours): Approximately 94% | renal clearance as share of total plasma clearance [10]: 74.5±8.8% | share of the radioactivity excreted in the urine [7]: 82%
Compound: Nc1nc2c(ncn2CCC(CO)CO)c(=O)[nH]1 [penciclovir]
